{"source": "patent US8507536B2", "about": "“Gonadotropin-releasing hormone receptor antagonists and methods relating thereto” (Neurocrine Biosciences, Inc., priority 2007, dated 2013)", "target": "T1, human GnRH receptor (Homo sapiens, UniProt P30968)", "T1 construct": "expressed in transfected cells; membrane preparations", "T1 sequence (P30968 1-328)": "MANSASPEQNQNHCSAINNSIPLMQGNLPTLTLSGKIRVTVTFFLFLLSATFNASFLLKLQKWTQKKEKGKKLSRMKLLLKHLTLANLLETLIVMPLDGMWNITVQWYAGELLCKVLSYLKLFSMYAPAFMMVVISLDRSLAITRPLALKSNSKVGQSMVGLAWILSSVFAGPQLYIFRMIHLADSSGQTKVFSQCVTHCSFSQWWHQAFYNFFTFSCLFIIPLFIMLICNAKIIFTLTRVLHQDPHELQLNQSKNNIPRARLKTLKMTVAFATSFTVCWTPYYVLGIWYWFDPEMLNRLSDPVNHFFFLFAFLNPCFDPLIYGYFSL", "assay": "peptide competitive human receptor binding assays (radioligand displacement)", "conditions": "tested in one or more of the peptide competitive human receptor binding assays", "description": "HEK293 cells stably transfected with the human GnRH receptor are grown for two days after achieving confluence then are harvested by striking tissue culture flasks against a firm surface. Cells are collected by centrifugation at 1000 g for […]. Cell pellets are resuspended in 5% sucrose and homogenized using a polytron homogenizer for two 15 second homogenization steps. Cell homogenates are then centrifuged for 5 minutes at 3000 g to remove nuclei and the supernatant subsequently centrifuged for 30 minutes at 44,000 g to collect the membrane fraction. The membrane pellet is resuspended in GnRH binding buffer (10 mM HEPES, pH 7.5, 150 mM NaCl and 0.1% BSA) and aliquots immediately snap-frozen in liquid nitrogen and stored at −80° C. Protein content of the membrane suspension is determined using the Bio-Rad protein assay kit (Bio-Rad).\nRBL cells stably transfected with the human GnRH receptor are grown to 80% confluency prior to harvesting. The cells are incubated at 37° C. for 10 min in 0.5 mM EDTA/PBS (Ca^++, Mg^++ free), and are dislodged from the plate by gentle rapping of the flasks. Cells are collected and pelleted by centrifugation at 1000 g for 5 minutes. Cell pellets are resuspended in buffer (DPBS supplemented with 10 mM MgCl2, 2 mM EGTA, pH=7.4), and cell lysis is performed using a pressure cell and applying N2 at a pressure of 900 psi for 30 min at 4° C. Unbroken cells and larger debris were removed by centrifugation at 1200 g for 10 min at 4° C. The cell membrane supernatant is then centrifuged at 45,000 g and the resulting membrane pellet is resuspended in assay buffer and homogenized on ice using a tissue homogenizer. Protein concentrations are determined using the Coomassie Plus Protein Reagent kit. Membranes are aliquoted and stored at −80° C. until ready for use.\nRadioligand binding displacement assays using the peptide radioligands are performed in buffer containing 10 mM HEPES, 150 mM NaCl and 0.1% BSA, pH=7.5. Radioligand binding assays employing the use of [^3H]-1-(2,6-difluorobenzyl)-3-[(2R)-amino-2-phenethyl]-5-(2-fluoro-3-methoxyphenyl)-6-methyluracil (here the 3-methoxy group is tritiated) are run in buffer containing 50 mM Tris, 150 mM NaCl, 5 mM MgCl2, 0.01% saponin and 0.5 mM EDTA, pH=7.5. Radioligand displacement assays are performed by incubating radioligand ([^125I-Tyr^5, DLeu^6, NMeLeu^7, Pro^9-NEt]GnRH (0.1 nM), [His^5, ^125I-DTyr^6]GnRH (0.2 nM) (31) or [^3H]-1-(2,6-difluorobenzyl)-3-[(2R)-amino-2-phenethyl]-5-(2-fluoro-3-methoxyphenyl)-6-methyluracil (1 nM)), unlabeled competitors at concentrations ranging from 0.3 pM to 10 μM, and membranes for 2 hrs at rt. 10 to 20 μg protein/well is used from membrane preparations for human, monkey and rabbit GnRH receptor. 5 μg/well and 60 μg/well of membranes are used for rat and dog GnRH receptors, respectively. Binding assays are performed in either Millipore 96-well GF/C filtration plates (for ([^125I-Tyr^5, DLeu^6, NMeLeu^7, Pro^9-NEt]GnRH assays), or in 96 well low binding plates, which are subsequently filtered onto GF/C Unifilters. Filters are pretreated with 0.5% PEI for 30 min prior to use. Reactions are terminated by rapid vacuum filtration, and the filters are washed twice with 250 μL ice cold PBS pH=7.4 (0.01% Tween-20 is included in wash media for [His^5, ^125I-DTyr^6]GnRH and [^3H]-1-(2,6-difluorobenzyl)-3-[(2R)-amino-2-phenethyl]-5-(2-fluoro-3-methoxyphenyl)-6-methyluracil radioligands). The filters are dried, and the Millipore filters are monitored for radioactivity using a Cobra II gamma counter (Perkin Elmer Life Sciences). For assays filtered onto the GF/C Unifilter plates, 50 μL scintillation fluid is added to each filter, and radioactivity is monitored using a TopCount NXT. For iodinated radioligands, total radioligand is monitored on a gamma counter, and for the tritiated radioligand, total radioligand is monitored using a Perkin Elmer 1600TR liquid scintillation counter. […]"}
{"compound": "CC1(C)CCN(S(=O)(=O)c2cc(-c3cnc(C(F)(F)F)cc3C#N)c(Cl)cc2OCCO)c2ccccc21", "note": "[Example 11-2, 5-[2-chloro-5-(4,4-dimethyl-3,4-dihydro-2H-quinoline-1-sulfonyl)-4-(2-hydroxy-ethoxy)-phenyl]-2-trifluoromethyl-isonicotinonitrile]", "values": [{"measurement": "Ki", "value": "≤ 100", "unit": "nM"}]}
{"compound": "CC1(C)CCN(S(=O)(=O)c2cc(-c3cnc(C(F)(F)F)cc3C#N)c(Cl)cc2OCCCO)c2ccccc21", "note": "[Example 11-3, 5-[2-chloro-5-(4,4-dimethyl-3,4-dihydro-2H-quinoline-1-sulfonyl)-4-(3-hydroxy-propoxy)-phenyl]-2-trifluoromethyl-isonicotinonitrile]", "values": [{"measurement": "Ki", "value": "≤ 100", "unit": "nM"}]}
{"compound": "CC1(C)CCN(S(=O)(=O)c2cc(-c3cnc(C(F)(F)F)cc3C#N)c(Cl)cc2OCCCC(=O)O)c2ccccc21", "note": "[Example 12-1, 4-[5-chloro-4-(4-cyano-6-trifluoromethyl-pyridin-3-yl)-2-(4,4-dimethyl-3,4-dihydro-2H-quinoline-1-sulfonyl)-phenoxy]-butyric acid]", "values": [{"measurement": "Ki", "value": "≤ 100", "unit": "nM"}]}
{"compound": "CC1(C)CCN(S(=O)(=O)c2cc(-c3cnc(C(F)(F)F)cc3C#N)c(Cl)cc2OCC(=O)O)c2ccccc21", "note": "[Example 12-2, [5-chloro-4-(4-cyano-6-trifluoromethyl-pyridin-3-yl)-2-(4,4-dimethyl-3,4-dihydro-2H-quinoline-1-sulfonyl)-phenoxy]-acetic acid]", "values": [{"measurement": "Ki", "value": "≤ 100", "unit": "nM"}]}
{"compound": "CC1(C)CCN(S(=O)(=O)c2cc(-c3cnc(C(F)(F)F)cc3C#N)c(Cl)cc2OCCC(=O)O)c2ccccc21", "note": "[Example 12-3, 3-[5-chloro-4-(4-cyano-6-trifluoromethyl-pyridin-3-yl)-2-(4,4-dimethyl-3,4-dihydro-2H-quinoline-1-sulfonyl)-phenoxy]-propionic acid]", "values": [{"measurement": "Ki", "value": "≤ 100", "unit": "nM"}]}
{"compound": "Cc1cc(C(F)(F)F)nc(=O)n1-c1cc(S(=O)(=O)N2CCCCc3ccccc32)ccc1Cl", "note": "[Example 13-1, 1-[2-chloro-5-(2,3,4,5-tetrahydro-benzo[b]azepine-1-sulfonyl)-phenyl]-6-methyl-4-trifluoromethyl-1H-pyrimidin-2-one]", "values": [{"measurement": "Ki", "value": "≤ 100", "unit": "nM"}]}
{"compound": "COc1cc(Cl)c(-c2cnc(C(F)(F)F)cc2C#N)cc1S(=O)(=O)N(C)c1ccccc1", "note": "[Example 15-1, 4-chloro-5-(4-cyano-6-trifluoromethyl-pyridin-3-yl)-2-methoxy-N-methyl-N-phenyl-benzenesulfonamide]", "values": [{"measurement": "Ki", "value": "≤ 100", "unit": "nM"}]}
{"compound": "COc1cc(Cl)c(-c2cnc(C(F)(F)F)cc2C#N)cc1S(=O)(=O)N1CCC(C)(C)c2ccccc21", "note": "[Example 15-2]", "values": [{"measurement": "Ki", "value": "≤ 100", "unit": "nM"}]}
{"compound": "COc1cc(Cl)c(-c2cnc(C(F)(F)F)cc2C#N)cc1S(=O)(=O)N(C)c1cccc(Cl)c1", "note": "[Example 15-3]", "values": [{"measurement": "Ki", "value": "≤ 100", "unit": "nM"}]}
{"compound": "COc1cc(Cl)c(-c2cnc(C(F)(F)F)cc2C#N)cc1S(=O)(=O)N(C)c1ccccc1C", "note": "[Example 15-5]", "values": [{"measurement": "Ki", "value": "≤ 100", "unit": "nM"}]}
{"compound": "COc1cc(Cl)c(-c2cnc(C(F)(F)F)cc2C#N)cc1S(=O)(=O)N(C)c1ccc(F)cc1", "note": "[Example 15-6]", "values": [{"measurement": "Ki", "value": "≤ 100", "unit": "nM"}]}
{"compound": "COc1cc(Cl)c(-c2cnc(C(F)(F)F)cc2C#N)cc1S(=O)(=O)N(C)c1ccc(Cl)c(Cl)c1", "note": "[Example 15-8]", "values": [{"measurement": "Ki", "value": "≤ 100", "unit": "nM"}]}
{"compound": "COc1cc(Cl)c(-c2cnc(C(F)(F)F)cc2C#N)cc1S(=O)(=O)N(C)c1cccc(C)c1", "note": "[Example 15-9]", "values": [{"measurement": "Ki", "value": "≤ 100", "unit": "nM"}]}
{"compound": "COc1cc(Cl)c(-c2cnc(C(F)(F)F)cc2C#N)cc1S(=O)(=O)N(C)c1ccc(Cl)cc1", "note": "[Example 15-10]", "values": [{"measurement": "Ki", "value": "≤ 100", "unit": "nM"}]}
{"compound": "COc1cc(Cl)c(-c2cnc(C(F)(F)F)cc2C#N)cc1S(=O)(=O)N(C)c1cccc(F)c1", "note": "[Example 15-11]", "values": [{"measurement": "Ki", "value": "≤ 100", "unit": "nM"}]}
{"compound": "COc1cc(Cl)c(-c2cnc(C(F)(F)F)cc2C#N)cc1S(=O)(=O)N(C)c1ccccc1F", "note": "[Example 15-12]", "values": [{"measurement": "Ki", "value": "≤ 100", "unit": "nM"}]}
{"compound": "COc1cccc(N(C)S(=O)(=O)c2cc(-c3cnc(C(F)(F)F)cc3C#N)c(Cl)cc2OC)c1", "note": "[Example 15-14]", "values": [{"measurement": "Ki", "value": "≤ 100", "unit": "nM"}]}
{"compound": "COc1cc(Cl)c(-c2cnc(C(F)(F)F)cc2C#N)cc1S(=O)(=O)N(C)c1c(C)cccc1OC", "note": "[Example 15-15]", "values": [{"measurement": "Ki", "value": "≤ 100", "unit": "nM"}]}
{"compound": "COc1ccccc1N(C)S(=O)(=O)c1cc(-c2cnc(C(F)(F)F)cc2C#N)c(Cl)cc1OC", "note": "[Example 15-16]", "values": [{"measurement": "Ki", "value": "≤ 100", "unit": "nM"}]}
